Measured values as given in patent US8188134B2, “Thiophene-carboxamides useful as inhibitors of protein kinases” (Vertex Pharmaceuticals Incorporated, priority 2006, dated 2012).

Target: T1, Plk1 (Homo sapiens, UniProt P53350)
T1 construct: in the presence of 15 nM Plk1 (A20-K338)
Experiment: Plk1 inhibition assay (radioactive-phosphate incorporation)
Type: biochemical
Details: Ki(app)
Experimental: The compounds of the present invention are evaluated as inhibitors of human PLK kinase using the following assays.
Compounds were screened for their ability to inhibit Plk1 using a radioactive-phosphate incorporation assay. Assays were carried out in a mixture of 25 mM HEPES (pH 7.5), 10 mM MgCl2, and 1 mM DTT. Final substrate concentrations were 50 μM [γ-33P]ATP (136 mCi 33P ATP/mmol ATP, Amersham Pharmacia Biotech/Sigma Chemicals) and 10 μM peptide (SAM68 protein Δ332-443). Assays were carried out at 25° C. in the presence of 15 nM Plk1 (A20-K338). An assay stock buffer solution was prepared containing all of the reagents listed above, with the exception of ATP and the test compound of interest. 30 μL of the stock solution was placed in a 96 well plate followed by addition of 2 μL of DMSO stock containing serial dilutions of the test compound (typically starting from a final concentration of 10 μM with 2-fold serial dilutions) in duplicate (final DMSO concentration 5%). The plate was pre-incubated for 10 minutes at 25° C. and the reaction initiated by addition of 8 μL [γ-33P]ATP (final concentration 50 μM). […]
After removing mean background values for all of the data points, Ki(app) data were calculated from non-linear regression analysis of the initial rate data using the Prism software package (GraphPad Prism version 3.0cx for Macintosh, GraphPad Software, San Diego Calif., USA). […]

T1 sequence (P53350 20-338): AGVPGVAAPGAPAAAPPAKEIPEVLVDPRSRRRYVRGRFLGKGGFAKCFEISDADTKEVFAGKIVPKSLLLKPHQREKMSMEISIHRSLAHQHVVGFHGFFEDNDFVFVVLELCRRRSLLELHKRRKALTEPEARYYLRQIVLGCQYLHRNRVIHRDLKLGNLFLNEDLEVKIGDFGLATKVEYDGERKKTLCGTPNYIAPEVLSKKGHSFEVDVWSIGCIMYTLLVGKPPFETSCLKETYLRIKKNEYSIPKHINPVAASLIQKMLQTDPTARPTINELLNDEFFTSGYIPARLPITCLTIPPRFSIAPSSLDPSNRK

Ki (the text does not say which of the two Plk1 protocols was used)	Ki (lower bound in nM, upper bound in μM, protocol not specified)	SMILES
10 to 100 nM	–	CC(Oc1cc(-n2ccnc2)sc1C(N)=O)c1ccccc1Cl (centres unmarked) [I-1, 3-[1-(2-Chloro-phenyl)-ethoxy]-5-imidazol-1-yl-thiophene-2-carboxylic acid amide]
–	100 to 4000 nM	CC(Oc1cc(-c2cc(N)n[nH]2)sc1C(N)=O)c1ccccc1Cl (centres unmarked) [I-2, 5-(5-Amino-2H-pyrazol-3-yl)-3-[1-(2-chloro-phenyl)-ethoxy]-thiophene-2-carboxylic acid amide]
